Reference: patent publication US20240285638A1, “METHODS FOR TREATING FACIOSCAPULOHUMERAL MUSCULAR DYSTROPHY (FSHD)” (RESEARCH INSTITUTE AT NATIONWIDE CHILDREN'S HOSPITAL, priority 2021, published 2024)

How the values were obtained:
[1] = system: DUX4; assay: DUX4 biomarker and target gene expression in muscle of FSHD mouse model (TIC-DUX4) after IM or IV injection; type: in vivo
Description: SAA and AdOx, or derivatives thereof, as described herein, are each injected into a FSHD mouse model (TIC-DUX4) or any other mouse model of FSHD mice intramuscularly (IM) or intravenously (IV). After 4, 8, 12, 16, 20, and 24 weeks, the ? DUX4, a DUX4 biomarker, such as Wfdc3 or Trim36, and DUX4 target gene expression are measured by qRT-PCR, RNAscope, or ddPCR.

[2] = system: human myoblasts expressing DUX4; assay: Caspase-3/7 activation assay in human myoblasts transfected with DUX4, with or without inhibitor; type: cell-based; conditions: inhibitor added 1.5 hours later, increasing concentrations, caspase assay 48 hours later, FIGS. 6A-B
Description: HEK293 cells were transfected with 100 ng plasmid DNA (65,000 cells/well) using Lipofectamine 2000 and assays were performed 48 hours later using the Apo-ONE Homogeneous Caspase-3/7 Assay (Promega). The protocol was followed according to the manufacturer's instructions. Briefly, 100 μl of the reagent was added to each well and the 96-well plate was gently rotated for 20 min. Relative fluorescence was monitored every hour for 4-6 hours. Inhibitor studies were performed in human myoblasts which were transfected with 100 ng of DUX4 DNA (65,000 cells/well) with Lipofectamine 2000. The inhibitors adenosine dialdehyde or salvianolic acid A were added 1.5 hours later and a caspase assay was performed 48 hours later as above. The observation that a DUX4 arginine methylation null mutant protects from cell death and DUX4 interacts with an arginine methyltransferase indicate a role for arginine methylation inhibitors as protective in FSHD disease models. Thus, the global methylation inhibitor, adenosine dialdehyde (AdOx)^17, and the PRMT1 inhibitor, salvianolic acid A (SAA)^18 were tested for their ability to protect against DUX4-mediated cell death. The caspase assay was performed in human myoblasts expressing DUX4 in the presence or absence of AdOx or SAA.

[3] = system: DUX4; assay: DUX4-activated biomarkers and target genes in biopsied muscle of FSHD patients after IM or IV injection; type: in vivo, human
Description: SAA and AdOx, or derivatives thereof, as described herein, are injected into patients suffering from FSHD intramuscularly (IM) or intravenously (IV). Prior to treatment and after 4, 8, 12, 16, 20, 24, 28, 32, 36 40, 44, 48, and 52 weeks, DUX4-activated biomarkers and/or DUX4 target genes in muscle of the patients are measured in biopsied muscle as described herein.

## O=C(/C=C/c1ccc(O)c(O)c1/C=C/c1ccc(O)c(O)c1)O[C@H](Cc1ccc(O)c(O)c1)C(=O)O [SAA, salvianolic acid A]
[1]; IM or IV, 4-24 weeks, vs untreated mice
  DUX4 biomarker expression in muscle (Wfdc3 or Trim36): Reduced levels of DUX4 biomarker expression
[1]; IM or IV, vs untreated mice
  expression of DUX4 target genes PRAMEF12, ZSCAN4, TRIM43, LEUTX: decreased expression of DUX4 target genes
[1]; treated mice
  muscle strength, morphology, ambulation and motor function: improved muscle strength, morphology, and overall ambulation and motor function
[2]
  caspase cleavage (DUX4-mediated cell death): decreased caspase cleavage in a dose-responsive manner
[3]
  FSHD disease symptoms: Improvement in FSHD disease symptoms
[3]; 4-52 weeks, vs same patients prior to treatment
  expression levels of DUX4-activated biomarkers and/or DUX4 target genes in muscle: Reduced expression levels of DUX4-activated biomarkers and/or DUX4 target genes
